The record followed here is patent US20110190280A1, “Thiazole And Oxazole Kinase Inhibitors” (priority 2007, published 2011).

One assay has as its target B-Raf (Homo sapiens, UniProt P15056). The experiment in a line: B-Raf Accelerated MEK ATPase assay (BRAMA). It is filed as biochemical. The note with it: BRAMA enzyme assay; class by pIC50; read-out: B-Raf Activity. As to the method: Compounds of the present invention were tested for B-Raf […] inhibitory activity in a B-Raf Accelerated MEK ATPase assay (BRAMA). The BRAMA assay is a high sensitivity assay which measures an intrinsic MEK-mediated ATP hydrolysis uncoupled from downstream ERK phosphorylation by coupling the formation of ADP to NADH oxidation through the enzymes pyruvate kinase and lactate dehydrogenase. When ADP production is initiated by addition of catalytic amounts of an activated RAF enzyme and non-phosphorylated MEK, one observes robust ADP production concomitant with RAF-mediated phosphorylation of MEK. Specific details of the assay are disclosed in: C. Rominger, M. Schaber, E. May. Assay for B-Raf Activity Based on Intrinsic MEK ATPase Activity.

In the next assay the test system is Colo205 tumor cells. Description: Cell growth inhibition assay (CellTiter-Glo), Colo205.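 Further: growth measured via total ATP luminescence (CellTiter-Glo) as a proxy for cell number, inhibition expressed against DMSO-treated control wells, 3-day exposure at 0.2% final DMSO.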 The note with it: Homo sapiens, COLO 205, 72 h, read-out: Activity in Colo205 Tumor Cells.
The next assay relates to SK-MEL-28 tumor cells. Description: Cell growth inhibition assay (CellTiter-Glo), SK-MEL-28.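 Further: luminescent total ATP as a proxy for cell number, threefold serial dilutions at 0.2% DMSO, percent growth inhibition versus DMSO vehicle control wells.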 The note with it: Homo sapiens, SK-MEL-28, 72 h, read-out: Activity in SK-MEL-28 Tumor Cells.

Sequence of B-Raf (P15056 whole entry): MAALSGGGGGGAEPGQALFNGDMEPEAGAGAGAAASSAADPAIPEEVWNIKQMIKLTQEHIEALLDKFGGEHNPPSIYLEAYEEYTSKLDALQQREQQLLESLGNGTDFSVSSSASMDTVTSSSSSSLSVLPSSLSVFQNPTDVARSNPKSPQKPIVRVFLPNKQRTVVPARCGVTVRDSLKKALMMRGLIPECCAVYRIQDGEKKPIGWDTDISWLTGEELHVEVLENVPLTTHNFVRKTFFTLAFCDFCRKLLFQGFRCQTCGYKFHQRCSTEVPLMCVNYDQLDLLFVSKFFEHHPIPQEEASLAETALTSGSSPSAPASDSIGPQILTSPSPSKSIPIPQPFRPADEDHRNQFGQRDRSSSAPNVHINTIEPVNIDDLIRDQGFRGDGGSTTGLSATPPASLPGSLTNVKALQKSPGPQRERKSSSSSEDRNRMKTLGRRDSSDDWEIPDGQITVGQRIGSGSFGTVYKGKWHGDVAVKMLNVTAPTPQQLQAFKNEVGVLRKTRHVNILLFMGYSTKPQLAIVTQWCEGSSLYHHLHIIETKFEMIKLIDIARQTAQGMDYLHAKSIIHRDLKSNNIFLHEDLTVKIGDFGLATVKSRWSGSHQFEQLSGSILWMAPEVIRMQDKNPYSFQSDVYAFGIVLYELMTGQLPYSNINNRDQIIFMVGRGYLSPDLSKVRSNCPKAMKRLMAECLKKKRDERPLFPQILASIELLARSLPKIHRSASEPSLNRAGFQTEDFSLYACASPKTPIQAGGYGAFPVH

With `CCNc1nc(-c2cc(OC)cc(OC)c2)c(-c2ccnc(Nc3cc(F)c(OC4CCN(CCF)CC4)c(F)c3)n2)o1` [Example 93], the IC50 at B-Raf is less than 0.1 µM; in the assay on Colo205 tumor cells, 0.5 to 5 µM; in the assay with SK-MEL-28 tumor cells, 0.5 to 5 µM.
Take `COc1cc(OC)cc(-c2nc(N)oc2-c2ccnc(Nc3ccc(N4CCN(C)CC4)c(F)c3)n2)c1` [Example 86]: the figures for the IC50 on B-Raf, with Colo205 tumor cells and in the assay on SK-MEL-28 tumor cells were less than 0.1 µM, 0.5 to 5 µM and 0.5 to 5 µM, respectively.
Turning to `CCc1nc(-c2ccc3cc[nH]c3c2)c(-c2ccnc(Nc3ccc(OC4CCN(CCS(C)(=O)=O)CC4)c(F)c3)n2)s1` [Example 68, 4-[2-Ethyl-4-(1H-indol-6-yl)-1,3-thiazol-5-yl]-N-[3-fluoro-4-({1-[2-(methylsulfonyl)ethyl]-4-piperidinyl}oxy)phenyl]-2-pyrimidinamine], the IC50 on B-Raf is less than 0.1 µM; in the assay with Colo205 tumor cells, 0.5 to 5 µM; in the assay on SK-MEL-28 tumor cells it was 0.5 to 5 µM.
Consider `CCNc1nc(-c2cc(C)cc(OC)c2)c(-c2ccnc(Nc3ccc(N4CCN5CCCCC5C4)c(F)c3)n2)o1` (stereo not drawn) [Example 132], for which the IC50 on B-Raf was less than 0.1 µM; in the assay with Colo205 tumor cells, 0.5 to 5 µM; in the assay on SK-MEL-28 tumor cells it was 0.5 to 5 µM.
For the compound `CCNc1nc(-c2ccc(C)c(OC)c2)c(-c2ccnc(Nc3ccc(OCCN4CCCC4)c(C#N)c3)n2)s1` [Example 50, 5-[(4-{2-(Ethylamino)-4-[4-methyl-3-(methyloxy)phenyl]-1,3-thiazol-5-yl}-2-pyrimidinyl)amino]-2-{[2-(1-pyrrolidinyl)ethyl]oxy}benzonitrile], the IC50 on B-Raf is less than 0.1 µM; in the assay on Colo205 tumor cells it was less than 0.5 µM; in the assay with SK-MEL-28 tumor cells it was 0.5 to 5 µM.
In the same order, the values of `Nc1cccc(-c2nc(N3CCCC3)sc2-c2ccnc(Nc3ccc(NCCN4CCCC4)c(F)c3)n2)c1` [Example 109] are less than 0.1 µM, 0.5 to 5 µM and 0.5 to 5 µM.
In the same order, the values of `CCNc1nc(-c2cc(C)cc(OC)c2)c(-c2ccnc(Nc3ccc(N4CCOCC4)c(F)c3)n2)o1` [Example 101] are less than 0.1 µM, less than 0.5 µM and 0.5 to 5 µM.
The like results for `CCc1nc(-c2cc(C)cc(OC)c2)c(-c2ccnc(Nc3ccc(N4CCN5CCOC[C@H]5C4)nc3)n2)s1` [Example 80] were, in that order, less than 0.1 µM, more than 5 µM and more than 5 µM.
Regarding `CCNc1nc(-c2ccnc(O)c2)c(-c2ccnc(Nc3ccc(N4CCS(=O)(=O)CC4)nc3)n2)s1` [Example 79], the results for the IC50 on B-Raf, in the assay with Colo205 tumor cells and with SK-MEL-28 tumor cells were less than 0.1 µM, more than 5 µM and more than 5 µM, respectively.
Regarding `CCNc1nc(-c2cc(C)cc(OC)c2)c(-c2ccnc(Nc3ccc(N4CCN5CCOC[C@H]5C4)nc3)n2)s1` [Example 71, 4-{2-(Ethylamino)-4-[3-methyl-5-(methyloxy)phenyl]-1,3-thiazol-5-yl}-N-{6-[(9aR)-hexahydropyrazino[2,1-c][1,4]oxazin-8(1H)-yl]-3-pyridinyl}-2-pyrimidinamine], the IC50 on B-Raf was less than 0.1 µM; in the assay with Colo205 tumor cells it was less than 0.5 µM; with SK-MEL-28 tumor cells it was less than 0.5 µM.
Consider `CCNc1nc(-c2cc(OC)cc(OC)c2)c(-c2ccnc(Nc3ccc(N4CCN(C(=O)OCC)CC4)nc3)n2)o1` [Example 121], for which the IC50 was less than 0.1 µM on B-Raf, more than 5 µM with Colo205 tumor cells and more than 5 µM in the assay on SK-MEL-28 tumor cells.
As for `COc1cccc(-c2nc(C(C)C)sc2-c2ccnc(Nc3ccc(NCCN4CCCC4)cc3)n2)c1` [Example 76, N-(4-{2-(1-Methylethyl)-4-[3-(methyloxy)phenyl]-1,3-thiazol-5-yl}-2-pyrimidinyl)-N′-[2-(1-pyrrolidinyl)ethyl]-1,4-benzenediamine], the IC50 is less than 0.1 µM on B-Raf, 0.5 to 5 µM in the assay on Colo205 tumor cells and 0.5 to 5 µM in the assay with SK-MEL-28 tumor cells.
For the compound `COc1cccc(-c2nc(CF)sc2-c2ccnc(Nc3ccc(OCCN4CCCC4)c(F)c3)n2)c1` [Example 73, 4-{2-(Fluoromethyl)-4-[3-(methyloxy)phenyl]-1,3-thiazol-5-yl}-N-(3-fluoro-4-{[2-(1-pyrrolidinyl)ethyl]oxy}phenyl)-2-pyrimidinamine], the IC50 is less than 0.1 µM on B-Raf, 0.5 to 5 µM in the assay with Colo205 tumor cells and 0.5 to 5 µM with SK-MEL-28 tumor cells.
As to `CCNc1nc(-c2cc(C)cc(OC)c2)c(-c2ccnc(Nc3ccc(OC4CCN(CCF)CC4)c(C)c3)n2)o1` [Example 126], the results for the IC50 on B-Raf, in the assay with Colo205 tumor cells and with SK-MEL-28 tumor cells were less than 0.1 µM, 0.5 to 5 µM and 0.5 to 5 µM, respectively.
As to `CCc1nc(-c2cc(OC)cc(OC)c2)c(-c2ccnc(Nc3ccc(N4CCN(C)CC4)c(F)c3)n2)o1` [Example 85], the values for the IC50 at B-Raf, in the assay on Colo205 tumor cells and in the assay on SK-MEL-28 tumor cells were less than 0.1 µM, 0.5 to 5 µM and 0.5 to 5 µM, respectively.
As to `CCNc1nc(-c2ccnc(OC)c2)c(-c2ccnc(Nc3ccc(OCCN4CCCC4)c(Cl)c3)n2)s1` [Example 58, N-(3-Chloro-4-{[2-(1-pyrrolidinyl)ethyl]oxy}phenyl)-4-{2-(ethylamino)-4-[2-(methyloxy)-4-pyridinyl]-1,3-thiazol-5-yl}-2-pyrimidinamine], the IC50 at B-Raf was less than 0.1 µM; in the assay on Colo205 tumor cells it was less than 0.5 µM; with SK-MEL-28 tumor cells, less than 0.5 µM.
Regarding `CCNc1nc(-c2cc(OC)cc(OC)c2)c(-c2ccnc(Nc3ccc(OC4CCN(CCF)CC4)c(C)c3)n2)o1` [Example 88], the results for the IC50 at B-Raf, with Colo205 tumor cells and in the assay on SK-MEL-28 tumor cells were less than 0.1 µM, 0.5 to 5 µM and 0.5 to 5 µM, respectively.
As to `CCNc1nc(-c2cc(OC)cc(OC)c2)c(-c2ccnc(Nc3ccc(N4CCN5CCCCC5C4)c(F)c3)n2)o1` (stereo not drawn) [Example 134], the IC50 was less than 0.1 µM at B-Raf, 0.5 to 5 µM with Colo205 tumor cells and 0.5 to 5 µM in the assay on SK-MEL-28 tumor cells.
Turning to `CCNc1nc(-c2cc(OC)cc(OC)c2)c(-c2ccnc(Nc3ccc(CCN4CCOCC4)cc3)n2)o1` [Example 123], the IC50 on B-Raf was less than 0.1 µM; in the assay with Colo205 tumor cells, 0.5 to 5 µM; in the assay on SK-MEL-28 tumor cells, more than 5 µM.
As for `CCNc1nc(-c2cc(C)cc(OC)c2)c(-c2ccnc(Nc3ccc(N4CCN(CCOC)CC4)c(C(=O)O)c3)n2)o1` [Example 130], the IC50 is less than 0.1 µM at B-Raf, 0.5 to 5 µM with Colo205 tumor cells and 0.5 to 5 µM with SK-MEL-28 tumor cells.
Consider `COc1cc(OC)cc(-c2nc(N)oc2-c2ccnc(Nc3ccc(OC4CCN(CCS(C)(=O)=O)CC4)c(F)c3)n2)c1` [Example 75, 4-{2-Amino-4-[3,5-bis(methyloxy)phenyl]-1,3-oxazol-5-yl}-N-[3-fluoro-4-({1-[2-(methylsulfonyl)ethyl]-4-piperidinyl}oxy)phenyl]-2-pyrimidinamine], for which the IC50 was less than 0.1 µM at B-Raf, 0.5 to 5 µM in the assay with Colo205 tumor cells and 0.5 to 5 µM with SK-MEL-28 tumor cells.
In the case of `CCNc1nc(-c2cc(OC)cc(OC)c2)c(-c2ccnc(Nc3ccc(N4CCN(C)CC4)c(Cl)c3)n2)o1` [Example 69, 4-[4-[3,5-Bis(methyloxy)phenyl]-2-(ethylamino)-1,3-oxazol-5-yl]-N-[3-chloro-4-(4-methyl-1-piperazinyl)phenyl]-2-pyrimidinamine], the IC50 at B-Raf is less than 0.1 µM; in the assay with Colo205 tumor cells, less than 0.5 µM; in the assay on SK-MEL-28 tumor cells, 0.5 to 5 µM.
